Source: article PMC9505659, “Mixture Effects of Tryptophan Intestinal Microbial Metabolites on Aryl Hydrocarbon Receptor Activity” (International Journal of Molecular Sciences, 2022)
Like-named read-outs stand apart in the source and are kept apart here.

Legend:
vitamin D receptor (VDR) = biological target: T1, vitamin D receptor (VDR) (Homo sapiens, UniProt P11473); assay: Nuclear receptor counter-screen, luciferase reporter assay IZ-VDRE cells; assay type: cell-based; details: VD3 75 nM, 24 h
T1 construct: IZ-VDRE (derived from the human colon adenocarcinoma cell line LS180); endogenous in cells; host or cells: IZ-VDRE (LS180 stably transfected reporter line)
T1 sequence (P11473 1-427): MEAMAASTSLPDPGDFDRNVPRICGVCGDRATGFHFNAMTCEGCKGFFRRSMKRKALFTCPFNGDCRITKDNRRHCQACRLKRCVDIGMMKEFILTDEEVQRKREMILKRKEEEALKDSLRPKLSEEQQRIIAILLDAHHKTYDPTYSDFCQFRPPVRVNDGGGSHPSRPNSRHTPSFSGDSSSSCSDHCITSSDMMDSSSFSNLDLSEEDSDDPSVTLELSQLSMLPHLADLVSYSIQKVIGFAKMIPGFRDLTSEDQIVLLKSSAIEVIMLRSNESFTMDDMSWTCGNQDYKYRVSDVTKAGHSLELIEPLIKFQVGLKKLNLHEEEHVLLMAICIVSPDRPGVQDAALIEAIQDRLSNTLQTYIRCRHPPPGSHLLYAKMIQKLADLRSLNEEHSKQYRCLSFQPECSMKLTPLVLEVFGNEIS
Method: (§2) The following stably transfected reporter gene cell lines were used to estimate specific receptor activation: AZ-AHR (derived from the human hepatocellular carcinoma cell line HepG2) [41], LS174T-AHR-luc (harboring the reporter plasmid pGL-4.27-DRE and prepared by the same protocol as AZ-AHR, AZ-GR (derived from the human cervix carcinoma cell line HeLa)) [42], and IZ-VDRE (derived from the human colon adenocarcinoma cell line LS180) [43]. Cells were cultured in Dulbecco’s modified Eagle’s medium supplemented with 10% fetal bovine serum, 4 mM L-glutamine, 1% nonessential amino acids and antibiotics, and 100 U/mL Penicillin-Streptomycin. […]
(§3) The reporter cells were seeded into 96-well plates at a density of 2.5 × 10^4 (AZ-AHR, LS174T-AHR-luc, IZ-VDRE), 5 × 10^4 (AIZ-AR), 2.2 × 10^4 (AZ-GR), or 4 × 10^4 (PAZ-PPARg) cells in 0.2 mL of culture medium. […] After treatment, cells were lysed in a lysis buffer and the luciferase activity was measured in a 96-well plate format using the Nano-Glo Luciferase AssaySystem for the PAZ-PPARg and IZ-VDRE cell lines and the Luciferase AssaySystem for the AZ-AHR, LS174T-AHR-luc, AIZ-AR, and AZ-GR cell lines on a Tecan Infinite M200 Pro Plate Reader (Tecan, Männedorf, Switzerland).

[1] = biological target: T2, peroxisome proliferator-activated receptor gamma (PPARγ) (Homo sapiens, UniProt P37231); assay: Nuclear receptor counter-screen, luciferase reporter assay PAZ-PPARg cells; assay type: cell-based; details: 15d-PGDJ 40 µM, 24 h
T2 construct: PAZ-PPARg (derived from the human bladder carcinoma cell line T24/83); endogenous in cells; host or cells: PAZ-PPARg (T24/83 stably transfected reporter line)
T2 sequence (P37231 1-505): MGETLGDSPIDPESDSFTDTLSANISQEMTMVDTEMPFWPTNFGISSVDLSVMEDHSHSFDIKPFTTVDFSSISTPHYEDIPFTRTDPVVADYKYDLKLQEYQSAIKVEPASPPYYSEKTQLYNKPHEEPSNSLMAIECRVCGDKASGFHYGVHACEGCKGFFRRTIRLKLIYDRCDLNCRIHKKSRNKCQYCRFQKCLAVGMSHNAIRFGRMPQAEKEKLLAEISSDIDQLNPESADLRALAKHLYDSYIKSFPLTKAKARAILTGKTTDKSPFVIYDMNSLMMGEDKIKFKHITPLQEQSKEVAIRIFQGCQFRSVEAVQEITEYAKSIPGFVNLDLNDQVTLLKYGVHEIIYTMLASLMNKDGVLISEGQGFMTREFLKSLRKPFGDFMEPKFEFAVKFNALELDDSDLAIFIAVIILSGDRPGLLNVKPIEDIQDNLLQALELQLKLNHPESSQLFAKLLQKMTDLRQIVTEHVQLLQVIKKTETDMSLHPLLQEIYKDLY
Method: as §2, §3

AHR [2] = tested on: AHR; set-up: method as in PMID 32283770; details: reporter hepatic cell line, 24 h of incubation; cited from earlier work
AHR [3] = biological target: T3, AHR (Homo sapiens, UniProt P35869); assay: High-throughput AHR reporter gene assay in AZ-AHR cells;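 note: luciferase activity measured in lysed AZ-AHR reporter cells after 4 h compound exposure, with 0.1% DMSO as vehicle control and 5 nM TCDD as reference agonist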
T3 sequence (P35869 11-848): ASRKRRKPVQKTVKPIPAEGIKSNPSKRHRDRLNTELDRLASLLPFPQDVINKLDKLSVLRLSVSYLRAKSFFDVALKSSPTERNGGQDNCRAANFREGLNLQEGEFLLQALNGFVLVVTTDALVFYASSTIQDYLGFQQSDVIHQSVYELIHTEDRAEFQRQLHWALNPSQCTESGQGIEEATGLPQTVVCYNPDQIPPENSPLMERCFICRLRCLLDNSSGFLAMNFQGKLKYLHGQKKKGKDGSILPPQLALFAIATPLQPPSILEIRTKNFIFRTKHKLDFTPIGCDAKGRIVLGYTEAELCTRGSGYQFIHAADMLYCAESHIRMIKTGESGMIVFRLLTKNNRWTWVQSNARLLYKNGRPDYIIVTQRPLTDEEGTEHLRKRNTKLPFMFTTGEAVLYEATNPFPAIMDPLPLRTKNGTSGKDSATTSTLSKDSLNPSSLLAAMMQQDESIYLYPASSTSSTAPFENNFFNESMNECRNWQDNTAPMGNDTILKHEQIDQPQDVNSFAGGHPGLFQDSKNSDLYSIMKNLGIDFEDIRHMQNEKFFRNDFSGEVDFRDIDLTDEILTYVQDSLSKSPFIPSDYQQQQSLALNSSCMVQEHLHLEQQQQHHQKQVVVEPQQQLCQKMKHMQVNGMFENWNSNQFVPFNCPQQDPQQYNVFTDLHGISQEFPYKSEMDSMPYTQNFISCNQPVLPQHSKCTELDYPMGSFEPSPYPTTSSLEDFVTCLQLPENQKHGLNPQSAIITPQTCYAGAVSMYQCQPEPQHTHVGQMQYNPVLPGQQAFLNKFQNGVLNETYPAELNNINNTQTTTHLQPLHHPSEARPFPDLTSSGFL
Method: (§4) After 24 h of incubation, the cells were treated with the reference (5 nM TCDD) and tested compounds using a contact-free acoustic liquid handler ECHO 550 (Labcyte, San Jose, CA, USA). […] The cells were incubated with the tested compounds for 4 h. Thereafter, the cells were washed with PBS by Washer EL406 (BioTek, Winooski, VT, USA) and lysed by 1x gene reporter lysis buffer (E3971, Promega). After adding the substrate (D-Luciferin, L9504, Sigma) with a dispenser Multidrop Combi (ThermoFisher Scientific), the luciferase activity was measured on a multimode plate reader EnVision (PerkinElmer). The experiments were performed in technical duplicates and three biological replicates at least.

[4] = biological target: glucocorticoid receptor (GR) (Homo sapiens, UniProt P04150); assay: cell-based
Sequence of glucocorticoid receptor (GR) (P04150 whole entry): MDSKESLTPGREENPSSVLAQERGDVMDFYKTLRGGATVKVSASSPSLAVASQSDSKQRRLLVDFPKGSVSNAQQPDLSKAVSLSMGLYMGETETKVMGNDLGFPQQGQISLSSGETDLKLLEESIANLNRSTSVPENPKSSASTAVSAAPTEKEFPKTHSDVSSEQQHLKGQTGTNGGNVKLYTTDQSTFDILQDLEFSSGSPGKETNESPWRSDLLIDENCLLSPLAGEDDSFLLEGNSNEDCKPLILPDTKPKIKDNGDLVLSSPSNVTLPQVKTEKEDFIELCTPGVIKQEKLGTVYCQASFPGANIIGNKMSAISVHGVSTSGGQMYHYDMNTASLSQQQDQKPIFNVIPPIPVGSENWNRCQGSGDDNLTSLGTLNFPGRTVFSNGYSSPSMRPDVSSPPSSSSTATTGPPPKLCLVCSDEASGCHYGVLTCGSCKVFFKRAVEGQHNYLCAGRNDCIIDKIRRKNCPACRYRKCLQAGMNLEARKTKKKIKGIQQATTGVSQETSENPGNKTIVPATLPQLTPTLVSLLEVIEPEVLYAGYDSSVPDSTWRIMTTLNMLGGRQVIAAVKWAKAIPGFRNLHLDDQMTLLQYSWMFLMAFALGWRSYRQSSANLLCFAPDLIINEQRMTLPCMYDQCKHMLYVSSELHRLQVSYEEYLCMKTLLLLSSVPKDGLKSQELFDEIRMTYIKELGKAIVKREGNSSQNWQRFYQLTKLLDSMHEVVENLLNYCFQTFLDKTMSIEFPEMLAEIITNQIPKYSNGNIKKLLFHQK
Description: (§1) The human colon adenocarcinoma cell line LS174T was purchased from the American Type Culture Collection (ATCC). The following stably transfected reporter gene cell lines were used to estimate specific receptor activation: AZ-AHR (derived from the human hepatocellular carcinoma cell line HepG2), LS174T-AHR-luc (harboring the reporter plasmid pGL-4.27-DRE and prepared by the same protocol as AZ-AHR, AZ-GR (derived from the human cervix carcinoma cell line HeLa)), and IZ-VDRE (derived from the human colon adenocarcinoma cell line LS180). Cells were cultured in Dulbecco’s modified Eagle’s medium supplemented with 10% fetal bovine serum, 4 mM L-glutamine, 1% nonessential amino acids and antibiotics, and 100 U/mL Penicillin-Streptomycin. AIZ-AR (derived from the human prostate carcinoma cell line 22RV1) was cultivated in RPMI-1640 medium supplemented with 10% charcoal-stripped fetal bovine serum, 4 mM L-glutamine, and antibiotics 100 U/mL Penicillin-Streptomycin. PAZ-PPARg (derived from the human bladder carcinoma cell line T24/83) was cultivated in Dulbecco’s modified Eagle’s medium supplemented with 10% charcoal-stripped fetal bovine serum, 4 mM L-glutamine and antibiotics, and 100 U/mL Penicillin-Streptomycin. Cells were maintained in 75 cm^2 plastic tissue culture flasks and subcultured twice a week.

AHR [5] = biological target: T3, AHR
Method: as §4

AHR [6] = biological target: T3, AHR; assay: AHR luciferase reporter assay in LS174T-AHR-luc cells; assay type: cell-based; set-up: endogenous in cells; details: IND 274 µM (highest applied concentration), 4 h, TCDD 20 nM
Description: as §1

AZ-AHR cells = assay: Cell viability assays (MTT, neutral red, LDH) in AZ-AHR cells; assay type: cell-based, human; details: 24 h, 2.5 and 5 mM
Method: The highest concentrations of the tested compounds were adjusted based on their solubility. […] The MTT (3-(4,5,-dimethylthiazol-2-yl)-2,5-diphenyltetrazolium bromide) colorimetric assay was performed as previously described. The neutral red assay and LDH (Abcam, Cambridge, UK) assays were performed according to the manufacturer’s protocol. Assays were measured spectrophotometrically using a Tecan Infinite M200 plate reader (Tecan, Männedorf, Switzerland).

AHR [7] = biological target: T3, AHR; set-up: AZ-AHR (derived from the human hepatocellular carcinoma cell line HepG2); endogenous in cells; host or cells: AZ-AHR (HepG2 stably transfected with a reporter); method as in PMID 26235394; details: 4 h of incubation, human hepatic HepG2 (40/6) reporter cells; cited from earlier work
androgen receptor (AR) = details: DHT 100 nM, 24 h
Method: The human colon adenocarcinoma cell line LS174T was purchased from the American Type Culture Collection (ATCC). […] Cells were cultured in Dulbecco’s modified Eagle’s medium supplemented with 10% fetal bovine serum, 4 mM L-glutamine, 1% nonessential amino acids and antibiotics, and 100 U/mL Penicillin-Streptomycin. […] PAZ-PPARg (derived from the human bladder carcinoma cell line T24/83) was cultivated in Dulbecco’s modified Eagle’s medium supplemented with 10% charcoal-stripped fetal bovine serum, 4 mM L-glutamine and antibiotics, and 100 U/mL Penicillin-Streptomycin. Cells were maintained in 75 cm^2 plastic tissue culture flasks and subcultured twice a week.

[8] = AZ-AHR cells, 4 h, luciferase activity by MICT in highest concentration / by 5 nM TCDD

| SMILES | AHR agonist efficacy class (AHR [2]) | EC50 (AHR [3]) [µM] | efficacy class of AHR agonist based on magnitude of luciferase induction (AHR [3]; AZ-AHR cells, 4 h) | other results |
| --- | --- | --- | --- | --- |
| C=C1CC[C@H](O)C/C1=C/C=C1\CCC[C@]2(C)[C@@H]([C@H](C)CCCC(C)C)CC[C@@H]12 [VD3, cholecalciferol] | – | – | – | fold induction at 0.075 µM (vitamin D receptor (VDR)): 65 |
| CCCCC/C=C/C=C1/C(=O)C=C[C@@H]1C/C=C\CCCC(=O)O [15d-PGDJ, 15-Deoxy-δ12,14-Prostaglandin J2] | – | – | – | fold induction [1]: 3 fold |
| O=Cc1c[nH]c2ccccc12 [IA, Indole-3-aldehyde] | no or low efficacy | 18.9 ± 3.9 | low | relative efficacy, % of maximal induction to TCDD (AHR [3]; [8]): ≈ 25% |
| O=C(O)C(O)Cc1c[nH]c2ccccc12 (centres unmarked) [ILA, indole-3-lactate] | no or low efficacy | – | – | – |
| Cc1c[nH]c2ccccc12 [3MI, 3-methylindole] | medium efficacy | 8.4 | medium | – |
| NC(=O)Cc1c[nH]c2ccccc12 [IAD, indole-3-acetamide] | high-efficacy | 4.5 | high | relative efficacy, % of maximal induction to TCDD (AHR [3]; [8]): 84% |
| OCCc1c[nH]c2ccccc12 [IET, indole-3-ethanol] | medium efficacy | 29.3 ± 8.2 | medium | – |
| NCCc1c[nH]c2ccccc12 [TA, tryptamine] | medium efficacy | 13.8 | – | efficacy class of AHR agonist based on magnitude of luciferase induction (AHR [3]): medium |
| C[C@@H]1C[C@H]2[C@@H]3CCC4=CC(=O)C=C[C@]4(C)[C@@]3(F)[C@@H](O)C[C@]2(C)[C@@]1(O)C(=O)CO [DEX, dexamethasone] | – | – | – | fold induction at 0.1 µM [4]: 22 |
| O=C(O)C(=O)Cc1c[nH]c2ccccc12 [IPY, indole-3-pyruvate] | high-efficacy | – | high | EC50 (AHR [5]): 24.4 ± 12 µM; relative efficacy, % of maximal induction to TCDD (AHR [3]; [8]): 77% |
| Clc1cc2c(cc1Cl)Oc1cc(Cl)c(Cl)cc1O2 [TCDD, 2,3,7,8-tetrachlorodibenzo-p-dioxin, reference compound] | – | – | – | fold induction at 0.005 µM (AHR [3]; read-out: fold induction of luciferase activity, AZ-AHR cells, 4 h, TCDD 5 nM, over control cells): ~200 |
| c1ccc2[nH]ccc2c1 [IND, Indole] | high-efficacy | 37.6 ± 14.4 | – | AHR activation compared with TCDD (AHR [6]): stronger than TCDD; toxicity at very high concentrations (AZ-AHR cells): toxic; EC50 (AHR [2]): ~1.5 mM; efficacy class of AHR agonist based on magnitude of luciferase induction (AHR [3]): high; indole concentrations under which AHR was saturated (AHR [3]): > 20 µM; EC50 (AHR [7]): ~3 µM |
| O=C(O)/C=C/c1c[nH]c2ccccc12 [IAC, indole-3-acrylate] | medium efficacy | – | high | EC50 (AHR [5]): 8.4 µM; relative efficacy, % of maximal induction to TCDD (AHR [3]; [8]): 68% |
| O=C(O)Cc1c[nH]c2ccccc12 [IAA, indole-3-acetate] | no or low efficacy | – | – | – |
| C[C@]12CCC(=O)C[C@@H]1CC[C@@H]1[C@@H]2CC[C@]2(C)[C@@H](O)CC[C@@H]12 [DHT, 5α-dihydrotestosterone] | – | – | – | fold induction (androgen receptor (AR)): 20 fold |
| O=C(O)CCc1c[nH]c2ccccc12 [IPA, indole-3-propionate] | no or low efficacy | – | – | EC50 (AHR [5]): 48.1 ± 15.2 µM; efficacy class of AHR agonist based on magnitude of luciferase induction (AHR [3]): low; relative efficacy, % of maximal induction to TCDD (AHR [3]): ≈ 25% |
